The values that follow come from patent US11033535B2, “Oxadiazoles and thiadiazoles as TGF-β inhibitors” (Southern Research Institute, priority 2017, dated 2021).

Molecules are shown by their SMILES. Structures can show the parent of a compound that is named as a salt.

For one test, the target named is (Homo sapiens, UniProt P07996). The test is described as follows: ELISA based assays of TSP1 activation of latent TGF-β (purified protein components or TSP1-treated cell conditioned media). On the set-up: purchased R&D Systems. The conditions noted are these: at 1 pm. It is filed as biochemical. The protocol: Compound 35 was evaluated for its ability to inhibit TGF-β in both ELISA based assays with purified protein components (latent TGFβ and TSP1 or in TSP1-treated cell conditioned media).
(§1) For initial screening, an ELISA-based screening assay was used in which purified human platelet TSP-1 was incubated with compounds and then incubated with recombinant latent TGF-β1 (purchased from R&D Systems). Activity is measured in a commercially available ELISA which detects only active TGF-β (R &D Systems). Activity in the presence of compounds is compared to activity in TSP-1+latent TGF-β samples without inhibitory compounds (Lu et al. (2016) Am J Pathol 186:678-690).
Target sequence in this assay (P07996 19-1170): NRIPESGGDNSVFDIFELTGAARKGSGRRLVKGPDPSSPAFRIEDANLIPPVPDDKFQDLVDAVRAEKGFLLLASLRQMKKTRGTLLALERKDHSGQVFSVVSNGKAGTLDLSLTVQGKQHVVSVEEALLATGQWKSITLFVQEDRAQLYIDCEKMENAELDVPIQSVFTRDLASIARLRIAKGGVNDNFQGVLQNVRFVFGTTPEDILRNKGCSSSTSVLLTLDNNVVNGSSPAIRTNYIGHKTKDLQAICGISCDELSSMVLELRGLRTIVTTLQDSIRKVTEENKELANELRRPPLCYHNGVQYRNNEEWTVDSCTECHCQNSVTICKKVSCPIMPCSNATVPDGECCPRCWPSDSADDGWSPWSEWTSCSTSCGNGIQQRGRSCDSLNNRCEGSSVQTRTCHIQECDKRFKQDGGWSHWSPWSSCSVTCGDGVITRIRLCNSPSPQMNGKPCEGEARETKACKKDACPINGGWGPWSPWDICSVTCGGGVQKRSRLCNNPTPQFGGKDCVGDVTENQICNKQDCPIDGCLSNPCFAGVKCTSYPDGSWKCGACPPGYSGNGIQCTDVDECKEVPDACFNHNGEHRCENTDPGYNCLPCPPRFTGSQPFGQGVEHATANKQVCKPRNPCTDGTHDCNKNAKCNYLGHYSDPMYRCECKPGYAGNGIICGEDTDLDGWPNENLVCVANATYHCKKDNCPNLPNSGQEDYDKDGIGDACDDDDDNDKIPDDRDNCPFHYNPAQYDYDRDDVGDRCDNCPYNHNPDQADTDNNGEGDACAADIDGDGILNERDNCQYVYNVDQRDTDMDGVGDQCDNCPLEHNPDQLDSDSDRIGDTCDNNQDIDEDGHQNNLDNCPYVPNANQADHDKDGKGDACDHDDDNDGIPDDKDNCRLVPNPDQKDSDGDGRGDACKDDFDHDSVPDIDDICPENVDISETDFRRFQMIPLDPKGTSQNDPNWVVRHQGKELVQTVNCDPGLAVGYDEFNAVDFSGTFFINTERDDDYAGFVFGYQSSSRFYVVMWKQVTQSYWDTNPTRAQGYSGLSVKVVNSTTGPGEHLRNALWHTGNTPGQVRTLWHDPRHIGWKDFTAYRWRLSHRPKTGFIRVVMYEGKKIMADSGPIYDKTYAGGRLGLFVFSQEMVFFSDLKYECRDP
Turning to `CC(=O)N[C@@H](CCCCN)c1nnc(-c2ccccc2)s1` [Compound 35, (S)—N-(5-amino-1-(5-phenyl-1,3,4-thiadiazol-2-yl)pentyl)acetamide], the “inhibition of TGF-β” value was 15%.

Still in this test, the particulars now being: at 50 pm.
On to `CC(=O)N[C@@H](CCCCN)c1nnc(-c2ccccc2)s1` [Compound 35, (S)—N-(5-amino-1-(5-phenyl-1,3,4-thiadiazol-2-yl)pentyl)acetamide], for which the “inhibition of TGF-β” value is reported as 67%.

Staying with this test, now noted: at 100 pm.
`CC(=O)N[C@@H](CCCCN)c1nnc(-c2ccccc2)s1` [Compound 35, (S)—N-(5-amino-1-(5-phenyl-1,3,4-thiadiazol-2-yl)pentyl)acetamide]: the “inhibition of TGF-β” value worked out at 67%.

A further test deals with (Homo sapiens, UniProt P07996). Description: Secondary Assay, inhibitory activity of thiadiazole and oxadiazole analogs as TGF-beta inhibitors. Type of test: biochemical. The conditions noted are these: Table I. Here is the method: A summary of the inhibitory activity of representative thiadiazole analogs (Tables i and ii) and oxadiazole analogs (Table ii) is shown below.
as §1
To specifically assess activity of compounds in liver cell specific assays, two different assays were used. In the first, human hepatic stellate cells were incubated overnight in low serum media to condition the media with secreted latent TGF-β. Purified TSP1 either pre-incubated with compounds or not will be added to cultures and then conditioned media harvested to assess TGF-β biological activity using the R&D Systems ELISA as above. Hepatic stellate cells will be purchased from commercial sources. Although hepatic stellate cells are the primary drivers of liver fibrosis, conditions which drive liver fibrosis can induce hepatocyte TSP-1 expression which can then have paracrine effects on controlling TGF-β activation in hepatic stellate cells. Furthermore, TGF-β can negatively impact hepatocyte regeneration following injury. Therefore, the ability of compounds to block TSP-1 activation of latent TGF-β will also be assessed in cultured primary human hepatocytes following the protocol described for the hepatic stellate cells. Similar approaches have successfully been used to screen compounds which inhibit human myeloma cell derived latent TGF-β activation by TSP-1 (Lu et al. (2016) Am J Pathol 186:678-690).
Target sequence in this assay (P07996 whole entry): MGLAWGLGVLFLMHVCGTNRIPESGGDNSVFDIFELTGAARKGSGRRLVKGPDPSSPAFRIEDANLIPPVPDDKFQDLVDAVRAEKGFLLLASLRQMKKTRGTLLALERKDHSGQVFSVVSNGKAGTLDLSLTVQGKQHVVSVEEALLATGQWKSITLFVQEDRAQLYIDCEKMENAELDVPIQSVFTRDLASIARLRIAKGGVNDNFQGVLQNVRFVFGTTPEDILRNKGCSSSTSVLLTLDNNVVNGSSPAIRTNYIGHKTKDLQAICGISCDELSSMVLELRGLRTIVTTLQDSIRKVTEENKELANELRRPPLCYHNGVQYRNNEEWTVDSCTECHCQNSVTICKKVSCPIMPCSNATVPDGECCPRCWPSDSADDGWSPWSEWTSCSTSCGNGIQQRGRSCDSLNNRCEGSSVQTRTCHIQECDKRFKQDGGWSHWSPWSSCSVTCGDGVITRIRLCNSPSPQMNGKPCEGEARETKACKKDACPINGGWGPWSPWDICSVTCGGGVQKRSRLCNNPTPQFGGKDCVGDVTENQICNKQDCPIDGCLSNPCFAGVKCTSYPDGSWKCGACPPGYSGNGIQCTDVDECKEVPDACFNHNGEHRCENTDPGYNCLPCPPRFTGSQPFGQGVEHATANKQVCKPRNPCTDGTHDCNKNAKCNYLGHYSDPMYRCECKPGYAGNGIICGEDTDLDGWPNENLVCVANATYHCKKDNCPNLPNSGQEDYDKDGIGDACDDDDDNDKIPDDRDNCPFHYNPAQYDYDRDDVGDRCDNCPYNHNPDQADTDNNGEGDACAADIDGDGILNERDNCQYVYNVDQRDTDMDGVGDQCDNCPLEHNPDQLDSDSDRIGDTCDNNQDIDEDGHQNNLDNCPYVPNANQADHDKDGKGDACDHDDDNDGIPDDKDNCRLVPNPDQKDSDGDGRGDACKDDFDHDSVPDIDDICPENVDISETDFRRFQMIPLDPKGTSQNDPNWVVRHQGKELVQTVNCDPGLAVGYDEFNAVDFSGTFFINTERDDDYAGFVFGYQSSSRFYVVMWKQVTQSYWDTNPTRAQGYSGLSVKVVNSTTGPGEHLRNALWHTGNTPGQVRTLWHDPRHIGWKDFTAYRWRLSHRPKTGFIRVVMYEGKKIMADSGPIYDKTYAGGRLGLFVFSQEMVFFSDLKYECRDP
For the compound `CC(=O)N(C)C(Cc1ccc(CN)cc1)c1nnc(-c2cccc(OC(F)(F)F)c2)s1` (centres unmarked) [Compound 42335, N-(2-(4-(aminomethyl)phenyl)-1-(5-(3-(trifluoromethoxy)phenyl)-1,3,4-thiadiazol-2-yl)ethyl)-N-methylacetamide Hydrochloride], the IC50 amounted to 0.03 µM.

Take `CC(=O)NC(Cc1ccc(N)cc1)c1nnc(-c2cccc(OC(F)(F)F)c2)s1` (centres unmarked) [Compound 39999, N-(2-(4-aminophenyl)-1-(5-(3-(trifluoromethoxy)phenyl)-1,3,4-thiadiazol-2-yl)ethyl)acetamide]: the IC50 worked out at 0.015 µM.

Take `COc1cccc(-c2nnc(C(Cc3ccc(CN)cc3)NC(C)=O)s2)c1` (centres unmarked) [Compound 41149, N-(2-(4-(aminomethyl)phenyl)-1-(5-(3-methoxyphenyl)-1,3,4-thiadiazol-2-yl)ethyl)acetamide hydrochloride]: the IC50 worked out at 0.183 µM.

On to `CC(=O)NC(Cc1ccc(CN)cc1)c1nnc(-c2ccc(F)cc2)s1` (centres unmarked) [Compound 40051, N-(2-(4-(aminomethyl)phenyl)-1-(5-(4-fluorophenyl)-1,3,4-thiadiazol-2-yl)ethyl)acetamide], for which the IC50 is 0.049 µM.

The compound `CC(=O)N[C@H](Cc1ccc(CN)cc1)c1nnc(-c2cccc(OC(F)(F)F)c2)s1` (single isomer, unassigned) [Compound 41892] displayed an IC50 of 0.0269 µM.

With `CC(=O)NC(Cc1ccc(CN)cc1)c1nnc(-c2cccc(OC(F)(F)F)c2)s1` (centres unmarked) [Compound 40000, N-(2-(4-(aminomethyl)phenyl)-1-(5-(3-(trifluoromethoxy)phenyl)-1,3,4-thiadiazol-2-yl)ethyl)acetamide], the concentration for half-maximal inhibition (IC50) was 0.028 µM.

`NCc1cccc(CC(NC(=O)C2CCCCC2)c2nnc(-c3cccc(OC(F)(F)F)c3)s2)c1` (centres unmarked) [Compound 42461, N-(2-(3-(aminomethyl)phenyl)-1-(5-(3-(trifluoromethoxy)phenyl)-1,3,4-thiadiazol-2-yl)ethyl)cyclohexanecarboxamide] returned a concentration for half-maximal inhibition (IC50) of 0.005 µM.

On to `CC(=O)NC(Cc1ccc(CN)cc1)c1nnc(-c2cc(C)cc(OC(F)(F)F)c2)s1` (centres unmarked) [Compound 42470], for which the IC50 was 0.008 µM.

Regarding `CC(=O)NC(Cc1ccc(CN)cc1)c1nnc(-c2cc(C(F)(F)F)cc(C(F)(F)F)c2)s1` (centres unmarked) [Compound 40653, N-(2-(4-(aminomethyl)phenyl)-1-(5-(3,5-bis(trifluoromethyl)phenyl)-1,3,4-thiadiazol-2-yl)ethyl)acetamide], the IC50 amounted to 0.039 µM.

`COc1cc(-c2nnc(C(Cc3ccc(CN)cc3)NC(C)=O)s2)cc(C(F)(F)F)c1` (centres unmarked) [Compound 42330, N-(2-(4-(aminomethyl)phenyl)-1-(5-(3-methoxy-5-(trifluoromethyl)phenyl)-1,3,4-thiadiazol-2-yl)ethyl)acetamide] came in with an IC50 of 0.006 µM.

Compound `NCc1cccc(CC(NC(=O)C2CC2)c2nnc(-c3cccc(OC(F)(F)F)c3)s2)c1` (centres unmarked) [Compound 42468, N-(2-(3-(aminomethyl)phenyl)-1-(5-(3-(trifluoromethoxy)phenyl)-1,3,4-thiadiazol-2-yl)ethyl)cyclopropanecarboxamide] had an IC50 of 0.008 µM.

Consider `CC(=O)NC(Cc1ccc(CN)cc1)c1nnc(-c2cccc(OC(F)(F)F)c2)s1` (racemic) [Compound 41791], for which inhibition was half-maximal at 0.061 µM (IC50).

`CC(=O)NC(Cc1ccc(CN)cc1)c1nnc(-c2cccc(C(F)(F)F)c2)s1` (centres unmarked) [Compound 41152, N-(2-(4-(aminomethyl)phenyl)-1-(5-(3-(trifluoromethyl)phenyl)-1,3,4-thiadiazol-2-yl)ethyl)acetamide hydrochloride]: the IC50 is 0.009 µM.

For `CC(=O)NC(Cc1ccc(CN)cc1)c1nnc(-c2ccncc2)s1` (centres unmarked) [Compound 39245, N-(2-(4-(aminomethyl)phenyl)-1-(5-(pyridin-4-yl)-1,3,4-thiadiazol-2-yl)ethyl)acetamide], the IC50 is 0.033 µM.

As for `CC(=O)N[C@@H](Cc1ccc(CN)cc1)c1nnc(-c2cccc(OC(F)(F)F)c2)s1` (single isomer, unassigned) [Compound 41891], the IC50 was 0.026 µM.

The compound `COc1cc(C)cc(-c2nnc(C(Cc3ccc(CN)cc3)NC(C)=O)s2)c1` (centres unmarked) [Compound 42473] registered an IC50 of 0.008 µM.

Staying with this test, now noted: Table II.
For `CC(=O)NC(CCCCN)c1nnc(-c2ccc(F)cc2)s1` (centres unmarked) [Compound 39261, N-(5-Amino-1-(5-(4-fluorophenyl)-1,3,4-thiadiazol-2-yl)pentyl)acetamide], the midpoint of inhibition, the IC50, lay at 0.324 µM.

As for `CC(=O)NC(CCCCN)c1nnc(C2CCCCC2)s1` (centres unmarked) [Compound 39139, N-(5-Amino-1-(5-cyclohexyl-1,3,4-thiadiazol-2-yl)pentyl)acetamide], the IC50 is 0.013 µM.

Still in this test, the particulars now being: Table II, cells that print μM.
With `CC(=O)NC(CCCCN)c1nnc(-c2ccncc2)o1` (centres unmarked) [Compound 40074, N-(5-Amino-1-(5-(pyridin-4-yl)-1,3,4-oxadiazol-2-yl)pentyl)acetamide], the 50% inhibitory concentration (IC50) was > 1 µM.

For `CC(=O)NC(CCCCN)c1nnc(-c2ccc(F)cc2F)s1` (centres unmarked) [Compound 39425, N-(5-Amino-1-(5-(2,4-difluorophenyl)-1,3,4-thiadiazol-2-yl)pentyl)acetamide], the 50% inhibitory concentration (IC50) was > 1 µM.
